Measured values from publication PMC6192554, “In vitro toxicity and efficacy of verdinexor, an exportin 1 inhibitor, on opportunistic viruses affecting immunocompromised individuals” (PLoS ONE, 2018).
Read-outs that look alike come from different tables or passages of the source.

What was measured:
[1] = system: Epstein-Barr virus (EBV) Akata strain; experiment: EBV secondary assay, qPCR of viral DNA in induced Akata cells; assay type: cell-based
Procedure: EBV Akata strain was assayed in Akata cells (John Sixbey, LSU) latently infected with EBV (and therefore oncogenic). Cells were maintained in RPMI 1640, (Mediatech) with 10% FBS (Hyclone), L-glutamine, penicillin and gentamicin.
Secondary assay for EBV were performed in Akata cells that were induced to undergo a lytic infection with 50μg/ml of a goat anti-human IgG antibody by methods we reported previously. Experimental compounds were diluted in round bottom 96-well plates to yield concentrations ranging from 0.0032–100μM. Akata cells were added to the plates at a concentration of 4×10^4 cells per well and […]. Assay plates were incubated for seven days at 37°C. For all assays, the replication of the virus was assessed by the quantification of viral DNA. For primer sequences, please see S1 Table. EBV DNA was purified according to manufacturer’s instructions (Wizard SV 96 Genomic DNA Purification System). The purified DNA was then subjected to qPCR that amplified a fragment corresponding to nucleotides 96802–97234 in the EBV genome (AJ507799). Plasmid pMP218 containing a DNA sequences corresponding to nucleotides 14120–14182 (AF148805.2) was used to provide absolute quantification of viral DNA. Compound concentrations sufficient to reduce genome copy number by 50% were calculated from experimental data.

[2] = system: BK polyomavirus (BKPyV) Gardner strain; experiment: BKPyV qPCR genome copy assay in HFF cells; assay type: cell-based; conditions: Betapolyomavirus hominis
Procedure: (§1) John Cunningham polyomavirus (JCPyV) strains MAD-1 and MAD-4 and BK polyomavirus (BKPyV) Gardner strain were obtained from ATCC. COS-7 cells were obtained from ATCC and maintained according to ATCC-supplied protocols.
Primary assays for BKPyV were performed in 384-well plates containing monolayers of HFF cells. Compound dilutions ranging from 0.0032–100μM were prepared in plates containing cells which were subsequently infected at an MOI of 0.001. After a 7d incubation, total DNA was prepared using Extracta and genome copy number was quantified by qPCR using the primers and probe listed in S1 Table [18]. Plasmid pMP526 served as the DNA standard for quantification purposes. Compounds were confirmed in a similar assay in 96-well plates according to established laboratory protocols with the compounds added 1h […] to identify compounds that inhibit early stages of replication including adsorption and entry. Genome copy number was determined by methods described above.

[3] = system: JC polyoma virus MAD-4 strain; experiment: microbe, parasite or virus in culture; assay type: cell-based; conditions: Polyomavirus sp., COS-7, JCPyV, COS-7 cells
Procedure: as §1
(§2) Cytotoxicity assay was performed in a manner analogous to KSHV above. Evaluation of compounds against JCPyV virus was done in COS7 cells with the plasmid pMP508 to provide a standard curve for quantification.
Viral DNA was quantified (S1 Table) together with the plasmid pMP508 to provide a standard curve for absolute quantification. Secondary assays against JCV were also performed in COS7 cells by methods similar to those for BK virus to identify if verdinexor inhibited adsorption or entry of the virus.

[4] = Cytotoxicity in COS7 cells, concurrent with JCPyV assays; assay type: cell-based; conditions: African green monkey, COS-7 cells
Procedure: Cytotoxicity assays: Concurrent assessment of cytotoxicity was also performed for each study in the same cell line and with the same compound exposure.
For KSHV, cell viability was assessed with the CellTiter-Glo Luminescent Cell Viability Assay (Promega) using manufacturer’s protocol. Luminescence was quantified on a luminometer. Standard methods were used to calculate the 50% cytotoxic level (CC50).
as §2

[5] = system: Guinea pig CMV strain 22122; experiment: GPCMV plaque reduction assay in GPL cells; assay type: cell-based, guinea pig cytomegalovirus; conditions: in Cavia porcellus, primary screen
Procedure: Murine CMV strain Smith was obtained from Earl Kern and assayed in mouse embryonic fibroblast cells (MEF) immortalized by telomerization. Guinea pig CMV strain 22122 was obtained from the ATCC and assayed in primary guinea pig lung cells (GPL). Both MEF and GPL cells were prepared at the UAB tissue procurement facility with IRB approval as previously described.
Plaque reduction assays for MCMV, GPCMV were performed on monolayers of GPL (GPCMV) or MEF (MCMV) cells prepared in six-well plates and incubated at 37°C for 2d to allow the cells to reach confluency. Media was then aspirated from the wells and 0.2ml of virus was added to each of three wells to yield 20–30 plaques in each well. The virus was allowed to adsorb to the cells for 1h and the plates were agitated every 15min. Compounds were diluted in assay media consisting of MEM with Earl’s salts supplemented with 2% FBS, L-glutamine, penicillin, and gentamycin. Solutions ranging from 0.0032–10μM (primary) or 0.032–100μM (secondary) were added to triplicate wells and the plates were incubated for various times, depending on the virus used. For MCMV and GPCMV, the cell monolayer was stained with 1% neutral red solution for 4h at which time the stain was aspirated and cells were washed with PBS. […]

[6] = system: 104 principal receptor/ligand interactions; experiment: Off-target panel of in vitro protein binding assays; conditions: 10 μM; 104 receptor/ligand interactions
Procedure: Serum concentrations with Verdinexor have been previously established in in vivo models of influenza in both mice and ferrets. In mice receiving 10mg/kg and ferrets receiving 5mg/kg, max plasma concentration of verdinexor was approximately 1200 (ng/mL) however, the half life in mice was extended (6 hours) as compared to that of ferrets (2 hours). Serum protein binding of verdinexor in humans is 98.4%. […] A Phase 1, Randomized, Double-Blind, Placebo-Controlled, Sequential, Dose-Escalating Trial to Evaluate the Safety and Tolerability of Oral Verdinexor (KPT-335) in Healthy Adult Subjects was conducted in Nucleus Network, Melbourne, Victoria, Australia [ClinicalTrials.gov: NCT02431364]. No study results are currently posted for this study. Furthermore, a clinical study was submitted to the USA FDA on IND#122718. This phase 1a, Randomized, Double-Blind, Placebo-Controlled, Sequential, Dose-Escalating Trial of Single and Multi-Dose oral verdinexor (KPT-335) to Evaluate the Safety and Tolerability in Healthy Elderly Volunteers is yet to be initiated and recruit subjects.

[7] = target: histamine H1 receptor (Homo sapiens, UniProt P35367); experiment: Histamine H1 receptor binding (off-target panel); conditions: Study No. KS-1016 and PE-50946871
[8] = mouse, in vivo, 10 mg/kg; cited from earlier work
[9] = ferrets receiving 5mg/kg; cited from earlier work

histamine H1 receptor, sequence (P35367 whole entry, species assumed): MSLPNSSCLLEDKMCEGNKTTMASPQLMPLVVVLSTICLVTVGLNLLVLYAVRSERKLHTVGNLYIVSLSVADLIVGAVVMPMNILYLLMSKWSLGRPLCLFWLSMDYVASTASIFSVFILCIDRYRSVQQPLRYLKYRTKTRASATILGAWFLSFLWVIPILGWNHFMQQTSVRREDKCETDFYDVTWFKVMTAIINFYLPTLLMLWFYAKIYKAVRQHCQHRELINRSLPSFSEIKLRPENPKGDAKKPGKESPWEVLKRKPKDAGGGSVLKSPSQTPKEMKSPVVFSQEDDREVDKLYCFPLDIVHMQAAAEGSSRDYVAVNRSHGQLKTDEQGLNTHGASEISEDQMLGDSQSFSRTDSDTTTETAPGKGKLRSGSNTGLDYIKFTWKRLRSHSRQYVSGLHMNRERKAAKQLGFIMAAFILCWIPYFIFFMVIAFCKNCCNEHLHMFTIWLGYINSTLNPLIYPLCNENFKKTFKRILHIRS

O=C(C=Cn1cnc(-c2cc(C(F)(F)F)cc(C(F)(F)F)c2)n1)NNc1ccccn1 (stereo in doubt) [verdinexor, (E)-3-[3-[3,5-bis(trifluoromethyl)phenyl]-1,2,4-triazol-1-yl]-N'-pyridin-2-ylprop-2-enehydrazide]
SI (Selectivity Index, CC50/EC50) ([1]; EBV, secondary screen, qPCR): 7 | EC50 ([1]; human gammaherpesvirus 4, Akata): 0.05 µM | EC50 ([2]; primary screen): 7.62 µM | EC50 ([2]; secondary screen, compound added 1h post-infection): 2.29 µM | EC50 ([3]; primary screen): 7.45 µM | EC50 ([3]; secondary screen): 3.14 µM | CC50 ([4]; JCPyV primary screen): 10 µM | CC50 ([4]; JCPyV secondary screen): 73.3 µM | EC50 [5]: 0.19 µM | effect on off-target panel [6]: none of the enzymes, receptors, transporters, kinases, or cysteine proteases were significantly affected | inhibition at 10 µM [7]: 33% | half life [8]: 6 h | half life [9]: 2 h
